SMILES strings stand for the structures. Bounds are passed on as bounds.

The target of one assay is T1, human DGAT2 (hDGAT2) (Homo sapiens, UniProt Q96PD7).
T1 construct: made in house; host or cells: Sf-9 insect cells (baculovirus), membrane fraction
T1 sequence (Q96PD7 1-388): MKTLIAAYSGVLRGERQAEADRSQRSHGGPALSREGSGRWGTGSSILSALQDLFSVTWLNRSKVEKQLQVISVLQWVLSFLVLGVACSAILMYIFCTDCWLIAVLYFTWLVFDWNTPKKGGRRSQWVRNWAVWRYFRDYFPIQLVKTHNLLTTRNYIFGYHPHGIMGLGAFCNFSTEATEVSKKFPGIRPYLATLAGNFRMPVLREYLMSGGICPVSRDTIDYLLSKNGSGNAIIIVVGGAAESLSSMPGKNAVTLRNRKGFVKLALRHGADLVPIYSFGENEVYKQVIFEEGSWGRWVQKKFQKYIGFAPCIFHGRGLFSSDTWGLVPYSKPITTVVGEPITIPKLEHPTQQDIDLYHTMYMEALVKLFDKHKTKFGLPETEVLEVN
In words: DGAT2 Enzymatic Activity Assay. It is filed as biochemical. The settings on record: membrane prep of Sf-9 cells expressing hDGAT2; 25 μM diolein, 5 μM 13C oleoyl-CoA; 13C18-triolein by LC/MS/MS; read-out: DGAT2 IC50. In outline: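 Membranes from Sf-9 cells expressing untagged human DGAT2 (8 ng/μL) incubated at rt in 100 mM Tris·Cl pH 7.0, 20 mM MgCl2, 5% ethanol with 25 μM diolein and 5 μM 13C oleoyl-CoA. 13C18-triolein product quantified by LC/MS/MS against 13C21-triolein internal standard; IC50 by 4-parameter fit.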
As a reminder, the IC50 is the midpoint of a concentration-inhibition curve. Take `CC(C)n1c(=O)n(-c2cccc(OC(F)F)c2)c2cc(F)c(C(=O)N[C@@]3(C)CCS(=O)(=O)C3)cc21` [Example 114, (S)-1-(3-(Difluoromethoxy)phenyl)-6-fluoro-3-isopropyl-N-(3-methyl-1,1-dioxidotetrahydrothiophen-3-yl)-2-oxo-2,3-dihydro-1H-benzo[d]imidazole-5-carboxamide]: the IC50 was 0.08 µM.
For the compound `CC(n1c(=O)n(-c2cc(OCC(F)F)ccc2F)c2ccc(C(=O)NC3(C)CCS(=O)(=O)CC3)cc21)C(C)(C)O` (single isomer, unassigned) [Example 73a, 1-(5-(2,2-difluoroethoxy)-2-fluorophenyl)-3-(3-hydroxy-3-methylbutan-2-yl)-N-(4-methyl-1,1-dioxidotetrahydro-2H-thiopyran-4-yl)-2-oxo-2,3-dihydro-1H-benzo[a]imidazole-5-carboxamide], the IC50 came to 0.0026 µM.
Take `CC(C)n1c(=O)n(-c2cc(OC(F)(F)C(F)F)ccn2)c2cc(F)c(C(=O)NC3(C)CCS(=O)(=O)CC3)cc21` [Example 118, 6-fluoro-3-isopropyl-N-(4-methyl-1,1-dioxidotetrahydro-2H-thiopyran-4-yl)-2-oxo-1-(4-(1,1,2,2-tetrafluoroethoxy)pyridin-2-yl)-2,3-dihydro-1H-benzo[d]imidazole-5-carboxamide]: the IC50 was determined as 0.0055 µM.
The same measure, in the same setting: next, `CC(C)n1c(=O)n(-c2cc(OCC(F)F)ccn2)c2ccc(C(=O)NC3(C)CCS(=O)(=O)CC3)cc21` [Example 119, 1-(4-(2,2-difluoroethoxy)pyridin-2-yl)-3-isopropyl-N-(4-methyl-1,1-dioxidotetrahydro-2H-thiopyran-4-yl)-2-oxo-2,3-dihydro-1H-benzo[d]imidazole-5-carboxamide]: 0.051 µM.
For `CC(C)n1c(=O)n(-c2cccc(OC(F)F)c2)c2ncc(C(=O)N[C@]3(C)CCS(=O)(=O)C3)cc21` [Example 90, 3-[3-(difluoromethoxy)phenyl]-1-isopropyl-N-[(3R)-3-methyl-1,1-dioxo-thiolan-3-yl]-2-oxo-imidazo[4,5-b]pyridine-6-carboxamide], the concentration for half-maximal inhibition (IC50) came to 0.193 µM.
As for `CC1(NC(=O)c2ccc3c(c2)n(CC(F)(F)F)c(=O)n3-c2cccc(OC(F)F)c2)CCS(=O)(=O)CC1` [Example 44, 1-(3-(difluoromethoxy)phenyl)-N-(4-methyl-1,1-dioxidotetrahydro-2H-thiopyran-4-yl)-2-oxo-3-(2,2,2-trifluoroethyl)-2,3-dihydro-1H-benzo[d]imidazole-5-carboxamide], the IC50 worked out at 0.087 µM.
`CC(n1c(=O)n(-c2cccc(OC(F)(F)C(F)F)c2)c2ccc(C(=O)NC3(C)CCS(=O)(=O)CC3)cc21)C(C)(C)O` (single isomer, unassigned) [Example 77b, 3-(3-hydroxy-3-methylbutan-2-yl)-N-(4-methyl-1,1-dioxidotetrahydro-2H-thiopyran-4-yl)-2-oxo-1-(3-(1,1,2,2-tetrafluoroethoxy)phenyl)-2,3-dihydro-1H-benzo[d]imidazole-5-carboxamide]: the IC50 worked out at 0.0098 µM.
Take `C[C@@]1(NC(=O)c2ccc3c(c2)n(C2CCCC2)c(=O)n3-c2cccc(OC(F)F)c2)CCS(=O)(=O)C1` [Example 38, (R)-3-Cyclopentyl-1-(3-(difluoromethoxy)phenyl)-N-(3-methyl-1,1-dioxidotetrahydrothiophen-3-yl)-2-oxo-2,3-dihydro-1H-benzo[d]imidazole-5-carboxamide]: the IC50 is 0.024 µM.
For the compound `CC(C)n1c(=O)n(-c2cccc(F)c2)c2ccc(C(=O)NC3(C)CCS(=O)(=O)CC3)cc21` [Example 50, 1-(3-fluorophenyl)-3-isopropyl-N-(4-methyl-1,1-dioxidotetrahydro-2H-thiopyran-4-yl)-2-oxo-2,3-dihydro-1H-benzo[d]imidazole-5-carboxamide], the IC50 is above 9.99 µM.
Turning to `CC(n1c(=O)n(-c2cccc(OC(F)(F)C(F)F)c2)c2ccc(C(=O)NC3(C)CS(=O)(=O)C3)cc21)C(C)(C)O` (single isomer, unassigned) [Example 76a, 3-(3-hydroxy-3-methylbutan-2-yl)-N-(3-methyl-1,1-dioxidothietan-3-yl)-2-oxo-1-(3-(1,1,2,2-tetrafluoroethoxy)phenyl)-2,3-dihydro-1H-benzo[d]imidazole-5-carboxamide], the IC50 came to 0.08 µM.
Still for that read-out and setting: next, `CSc1cccc(-n2c(=O)n(C(C)C)c3cc(C(=O)NC4(C)CCS(=O)(=O)CC4)ccc32)c1` [Example 56, 3-isopropyl-N-(4-methyl-1,1-dioxidotetrahydro-2H-thiopyran-4-yl)-1-(3-(methylthio)phenyl)-2-oxo-2,3-dihydro-1H-benzo[d]imidazole-5-carboxamide]: 0.367 µM.

Still in this assay, the particulars now being: membrane prep of Sf-9 cells expressing hDGAT2; 25 μM diolein, 5 μM 13C oleoyl-CoA; 13C18-triolein by LC/MS/MS; read-out: Human DGAT2 IC50.
For the compound `CC(C)n1c(=O)n(-c2cncc(C3CC3)c2)c2ccc(C(=O)NC3(C)CS(=O)(=O)C3)cc21` [Example 84, 1-(5-Cyclopropylpyridin-3-yl)-3-isopropyl-N-(3-methyl-1,1-dioxidothietan-3-yl)-2-oxo-2,3-dihydro-1H-benzo[d]imidazole-5-carboxamide], the IC50 came to 0.071 µM.
`CC(C)n1c(=O)n(-c2cccc(OC(F)(F)C(F)F)c2)c2ccc(C(=O)NC3(C)CS(=O)(=O)C3)cc21` [Example 7, 3-isopropyl-N-(3-methyl-1,1-dioxo-thietan-3-yl)-2-oxo-1-[3-(1,1,2,2-tetrafluoroethoxy)phenyl]benz-imidazole-5-carboxamide]: the IC50 turned out to be 0.016 µM.
`CC(C)n1c(=O)n(-c2cc(OC(F)F)ccc2F)c2ccc(C(=O)NC3(C)CCS(=O)(=O)CC3)cc21` [Example 79, 1-(5-(Difluoromethoxy)-2-fluorophenyl)-3-isopropyl-N-(4-methyl-1,1-dioxidotetrahydro-2H-thiopyran-4-yl)-2-oxo-2,3-dihydro-1H-benzo[d]imidazole-5-carboxamide]: the IC50 was found to be 0.0021 µM.
In the case of `CCOc1cc(-n2c(=O)n(C(C)C)c3cc(C(=O)NC4(C)CCS(=O)(=O)CC4)ccc32)c(F)cn1` [Example 15, 1-(2-Ethoxy-5-fluoropyridin-4-yl)-3-isopropyl-N-(4-methyl-1,1-dioxidotetrahydro-2H-thiopyran-4-yl)-2-oxo-2,3-dihydro-1H-benzo[d]imidazole-5-carboxamide], the IC50 came to 0.0067 µM.

The values above are taken from patent US11976061B2, “Preparation of benzimidazolone derivatives as novel diacylglyceride O-acyltransferase 2 inhibitors” (Merck Sharp & Dohme LLC, priority 2020, dated 2024).
